Measured values: US10398697B2, “Solid solution comprising (6S)-5-methyl tetrahydrofolic acid or salt thereof, and preparation and use thereof” (priority 2014, dated 2019)
Like-named read-outs stand apart in the source and are kept apart here.

Tests used:
[1] = test system: T lymphocyte proliferation; assay: T lymphocyte proliferation, stimulus with Con A (CPM); format: cell-based
mice [2] = assay: Acute toxicity study of JK12A; format: in vivo; settings: dose of 2000 mg/kg
T lymphocyte = assay: Cell survival rate (OD) of lymphocytes with JK12A; format: cell-based
mice [3] = assay: Single dose toxicity of JK1303, kidney findings after 14 days; format: in vivo; settings: 14 days after a single dose of 1000 mg/kg
[4] = acute toxicity test data published at present; cited from earlier work
mice [5] = settings: after harmful impurities eliminated by the technology of the invention
[6] = Concentration determined 0.164 M
[7] = Concentration determined 0.41 M
[8] = Concentration determined 1.024 M
[9] = Concentration determined 2.56 M
[10] = Concentration determined 16.0 M
[11] = Concentration determined 100.000 µM
[12] = Amount of VC 0, day 0, 25° C. and 40% humidity
[13] = Amount of VC 0, day 7, 25° C. and 40% humidity
[14] = Amount of VC 0, day 15, 25° C. and 40% humidity
[15] = Amount of VC 0, day 30, 25° C. and 40% humidity
[16] = Amount of VC 0, day 60, 25° C. and 40% humidity
[17] = Amount of VC 20%, day 0, 25° C. and 40% humidity
[18] = Amount of VC 20%, day 7, 25° C. and 40% humidity
[19] = Amount of VC 20%, day 15, 25° C. and 40% humidity
[20] = Amount of VC 20%, day 30, 25° C. and 40% humidity
[21] = Amount of VC 20%, day 60, 25° C. and 40% humidity
[22] = Amount of VC 100%, day 0, 25° C. and 40% humidity
[23] = Amount of VC 100%, day 7, 25° C. and 40% humidity
[24] = Amount of VC 100%, day 15, 25° C. and 40% humidity
[25] = Amount of VC 100%, day 30, 25° C. and 40% humidity
[26] = Amount of VC 100%, day 60, 25° C. and 40% humidity
[27] = Amount of VC 500%, day 0, 25° C. and 40% humidity
[28] = Amount of VC 1000%, day 0, 25° C. and 40% humidity
[29] = Amount of VC 10000%, day 0, 25° C. and 40% humidity

CN1C2CNC3=NC(N)=NCC31N(c1ccc(C(=O)NC(CCC(=O)O)C(=O)O)cc1)C2 (centres unmarked) [JK12A]
effect on T lymphocyte proliferation [1]: significant inhibitory effect
T cell proliferation Comprehensive evaluation Percent enhancement/inhibition [1, 6]: −8%
T lymphocyte Stimulus with Con A Mean CPM [1, 6]: 40459 CPM
T cell proliferation Comprehensive evaluation Percent enhancement/inhibition [1, 7]: −68%
T lymphocyte Stimulus with Con A Mean CPM [1, 7]: 14073 CPM
T cell proliferation Comprehensive evaluation Percent enhancement/inhibition [1, 8]: −60%
T lymphocyte Stimulus with Con A Mean CPM [1, 8]: 17590 CPM
T cell proliferation Comprehensive evaluation Percent enhancement/inhibition [1, 9]: −42%
T lymphocyte Stimulus with Con A Mean CPM [1, 9]: 25507 CPM
T cell proliferation Comprehensive evaluation Percent enhancement/inhibition ([1]; Concentration determined 6.4 M): −30%
T lymphocyte Stimulus with Con A Mean CPM ([1]; Concentration determined 6.4 M): 30784 CPM
T cell proliferation Comprehensive evaluation Percent enhancement/inhibition [1, 10]: −18%
T lymphocyte Stimulus with Con A Mean CPM [1, 10]: 36061 CPM
T cell proliferation Comprehensive evaluation Percent enhancement/inhibition ([1]; Concentration determined […]): −1%
T lymphocyte Stimulus with Con A Mean CPM ([1]; Concentration determined […]): 43537 CPM
anatomical findings in liver and kidney (mice [2]): no significant changes
Cell survival rate (T lymphocyte; [11]): 73%
Mean OD (T lymphocyte; [11]): 0.089
Cell survival rate (T lymphocyte; [7]): 75%
Mean OD (T lymphocyte; [7]): 0.052
Cell survival rate (T lymphocyte; [8]): 59%
Mean OD (T lymphocyte; [8]): 0.073
Cell survival rate (T lymphocyte; [9]): 62%
Mean OD (T lymphocyte; [9]): 0.076
Cell survival rate (T lymphocyte; Concentration determined 6.4 M): 84%
Mean OD (T lymphocyte; Concentration determined 6.4 M): 0.103
Cell survival rate (T lymphocyte; [10]): 92%
Mean OD (T lymphocyte; [10]): 0.113
Cell survival rate (T lymphocyte; Concentration determined […]): 89%
Mean OD (T lymphocyte; Concentration determined […]): 0.109

CN1C2CNC3=NC(N)=NCC31N(c1ccc(C(=O)O)cc1)C2 (centres unmarked) [JK1303]
anatomical finding in the renal tubules (mice [3]): a large number of vacuoles
renal toxicity finding (mice [3]): severe renal tubular necrosis

(6S)-5-methyl tetrahydrofolic acid calcium salt [Example 11]
(6S)-5-methyl tetrahydrofolic acid calcium salt content [12]: 99.95%
JK12A content [12]: 0.03%
(6S)-5-methyl tetrahydrofolic acid calcium salt content [13]: 99.90%
JK12A content [13]: 0.06%
(6S)-5-methyl tetrahydrofolic acid calcium salt content [14]: 99.85%
JK12A content [14]: 0.12%
(6S)-5-methyl tetrahydrofolic acid calcium salt content [15]: 99.63%
JK12A content [15]: 0.25%
(6S)-5-methyl tetrahydrofolic acid calcium salt content [16]: 99.40%
JK12A content [16]: 0.46%
(6S)-5-methyl tetrahydrofolic acid calcium salt content [17]: 99.95%
JK12A content [17]: 0.03%
(6S)-5-methyl tetrahydrofolic acid calcium salt content [18]: 99.94%
JK12A content [18]: 0.04%
(6S)-5-methyl tetrahydrofolic acid calcium salt content [19]: 99.89%
JK12A content [19]: 0.08%
(6S)-5-methyl tetrahydrofolic acid calcium salt content [20]: 99.71%
JK12A content [20]: 0.17%
(6S)-5-methyl tetrahydrofolic acid calcium salt content [21]: 99.50%
JK12A content [21]: 0.22%
(6S)-5-methyl tetrahydrofolic acid calcium salt content [22]: 99.95%
JK12A content [22]: 0.03%
(6S)-5-methyl tetrahydrofolic acid calcium salt content [23]: 99.94%
JK12A content [23]: 0.03%
(6S)-5-methyl tetrahydrofolic acid calcium salt content [24]: 99.90%
JK12A content [24]: 0.05%
(6S)-5-methyl tetrahydrofolic acid calcium salt content [25]: 99.90%
JK12A content [25]: 0.05%
(6S)-5-methyl tetrahydrofolic acid calcium salt content [26]: 99.86%
JK12A content [26]: 0.10%
(6S)-5-methyl tetrahydrofolic acid calcium salt content [27]: 99.95%
JK12A content [27]: 0.03%
(6S)-5-methyl tetrahydrofolic acid calcium salt content (Amount of VC 500%, day 7, 25° C. and 40% humidity): 100.00%
(6S)-5-methyl tetrahydrofolic acid calcium salt content (Amount of VC 500%, day 15, 25° C. and 40% humidity): 100.00%
(6S)-5-methyl tetrahydrofolic acid calcium salt content (Amount of VC 500%, day 30, 25° C. and 40% humidity): 99.98%
(6S)-5-methyl tetrahydrofolic acid calcium salt content (Amount of VC 500%, day 60, 25° C. and 40% humidity): 99.96%
(6S)-5-methyl tetrahydrofolic acid calcium salt content [28]: 99.95%
JK12A content [28]: 0.03%
(6S)-5-methyl tetrahydrofolic acid calcium salt content (Amount of VC 1000%, day 7, 25° C. and 40% humidity): 100.00%
(6S)-5-methyl tetrahydrofolic acid calcium salt content (Amount of VC 1000%, day 15, 25° C. and 40% humidity): 100.00%
(6S)-5-methyl tetrahydrofolic acid calcium salt content (Amount of VC 1000%, day 30, 25° C. and 40% humidity): 100.00%
(6S)-5-methyl tetrahydrofolic acid calcium salt content (Amount of VC 1000%, day 60, 25° C. and 40% humidity): 100.00%
(6S)-5-methyl tetrahydrofolic acid calcium salt content [29]: 99.95%
JK12A content [29]: 0.03%
(6S)-5-methyl tetrahydrofolic acid calcium salt content (Amount of VC 10000%, day 7, 25° C. and 40% humidity): 100.00%
(6S)-5-methyl tetrahydrofolic acid calcium salt content (Amount of VC 10000%, day 15, 25° C. and 40% humidity): 100.00%
(6S)-5-methyl tetrahydrofolic acid calcium salt content (Amount of VC 10000%, day 30, 25° C. and 40% humidity): 100.00%
(6S)-5-methyl tetrahydrofolic acid calcium salt content (Amount of VC 10000%, day 60, 25° C. and 40% humidity): 100.00%

calcium (6S)-5-methyltetrahydrofolate
LD50 (median lethal dose) [4]: 2000 mg/kg
response of mice (mice [5]; dosage of 15000 mg/kg): no abnormal response
maximum tolerable dose (MTD) (mice [5]; mice): greater than 15 g/kg
